The values below come from publication PMC11134387, “Cancer-Stem-Cell Phenotype-Guided Discovery of a Microbiota-Inspired Synthetic Compound Targeting NPM1 for Leukemia” (JACS Au, 2024).

Each structure is given as a SMILES string. Several values for one entry are separate records, joined by “and”; a condition that tells them apart may be missing. Equal entries are not always repeated.

Test [1] deals with T1, NPM1 N-end (pentameric, WT) (Homo sapiens, UniProt P06748).
T1 construct: N-end pentameric domain (residues 1- 130); 6xHis (N); made in house; host or cells: E. coli BL21(DE3)
T1 sequence (P06748 1-130): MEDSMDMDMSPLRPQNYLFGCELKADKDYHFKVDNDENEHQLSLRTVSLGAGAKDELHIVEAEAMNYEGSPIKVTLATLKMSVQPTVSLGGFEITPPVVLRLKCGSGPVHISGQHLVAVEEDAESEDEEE
In words: Isothermal titration calorimetry, NPM1 N-end. The conditions noted are these: ITC, 25 °C. The class given is binding. An excerpt: (§1) To confirm a direct interaction of UCM-13369 with NPM1 and to address which domain of the protein would be responsible for binding the compound, pure protein samples of the pentameric N-end domain of NPM1, along with the C-terminal DNA-binding domains of WT and mutant NPM1 C+, were used in calorimetry assays. […] This is indicative of a lower diversity in the chemical environment of amide protons consistent with the previously reported protein unfolding.[29] […] On the other hand, the pentameric construct of the NPM1 N-end, which lacks the AML-related region, yielded a much lower binding affinity (KD ca. 100 μM range, Figure 3D).
(§2) ITC experiments were performed in a Nano ITC Low Volume (TA Instruments) at 25 °C. […]
(§3) The purity of the protein samples was checked by SDS–PAGE analysis (Figure S3) and protein quantification was performed using the Bradford protein assay.5 NPM molar concentration was expressed as the pentameric form for NPM1 WT N-end and as a monomer for NPM1 C-end WT and mutant. […]
(§4) After extraction with acetonitrile and acidification, samples were desalted and concentrated with C18 tips. Mass spectra were recorded in a Hybrid Quadrupole-Orbitrap™ Mass Spectrometer (Thermo Scientific, Waltham, Massachusetts, USA)
In general terms: Isothermal titration calorimetry measures the heat released or taken up as one component is titrated into another.

Test [2] has as its system primary HSCs from WT NPM1 AML patients. In words: CD34+ liquid HSC short-term culture, WT NPM1 AML patients. The conditions noted are these: Homo sapiens, n = 3. The class given is cell-based. How it is done: Considering the inhibitory capacity of UCM-13369 on AML cell lines (shown in Figure 3A), the therapeutic potential was assessed in primary CD34+ cells from AML patients. Two ex vivo models were used from AML patients and healthy donors: CD34+ liquid HSC (hematopoietic stem cell) culture as a short-term model and CFU-E (colony-forming unit–erythroid) as a midterm model.
The test compound was diluted in PBS. […]
Primary cells. 1x10^6/mL total mononuclear bone marrow cells (as source of CD34+ HSCs) of healthy donors and AML patients were used. They were cultured using Stem SpanTM supplement with pencillin/streptomycin (500 U/ml), TPO (10 µg/mL), SCF (10 µg/mL), FLT3 (10 µg/mL), IL-6 (10 µg/mL) and IL-3 (10 µg/mL). After 24 h fresh medium was added. After 72 h in maintenance cells were ready to start the assays. All cells wer e maintained at 37 °C in a humidified incubator in an atmosphere of 5% CO2. […]

Test [3] deals with primary CD34+ cells from AML patients. In words: Flow cytometry CD34-PE/Annexin V-FITC of primary HSCs from AML patients. Format: cell-based, human. The conditions noted are these: 5μM, representative sample. The protocol:
The inhibition of NPM1, especially NPM1 C+ pathway (as shown in Figure 4), by UCM-13369 correlates with the increase of apoptosis observed in treated primary CD34+ cells upon staining with Annexin V (Figure 5C).
CFU-E and CD34+ primary cells with and without UCM-13369 treatment were analyzed. The following monoclonal antibodies were used: CD34-PE, Annexin V-FITC (BD Biosciences). The cells were incubated with antibodies in PBS on ice for 15 min in the dark. The analysis of CD34+ and Annexin V+ subpopulation was carried out in a flow cytometer FACSCalibur (Becton Dickinson, Citometría y Microscopía de Fluorescencia core facility, UCM) and the data were processed using FlowJo_V10 software.
(In general: Flow cytometry measures light scatter and fluorescence of single cells or particles in a stream.)

A further test has as its target T2, NPM1 C-end C+ (Homo sapiens, UniProt P06748).
T2 construct: the C-end domain (residues 225- 294); 6xHis (N); made in house; host or cells: E. coli BL21(DE3)
As to the kind of experiment: Isothermal titration calorimetry, NPM1 C-end C+. The class given is binding. The conditions noted are these: ITC.
Source text: as §1, §2, §3, §4

T2 sequence (P06748 with tags, fused parts or gaps limits assumed): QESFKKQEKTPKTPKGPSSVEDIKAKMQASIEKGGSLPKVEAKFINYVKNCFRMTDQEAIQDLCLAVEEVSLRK

For orientation: Kd means the constant that tells how readily two partners part at equilibrium. Broadly, the IC50 is the concentration that gives 50% inhibition. High values mean lower potency, low ones higher potency. Take `COc1ccc(C2Cc3[nH]c4ccccc4c3C(CCNCC3CC3)C2N)cc1` (centres unmarked) [4b, 4-{2-[(Cyclopropylmethyl)amino]ethyl}-2-(4-methoxyphenyl)-2,3,4,9-tetrahydro-1H-carbazol-3-amine]: the Kd in test [1] is 100 µM and ~100 µM; at NPM1 C-end C+ (25 °C, NPM1 C-end C+), 15 µM. Besides, inhibition in test [2] was half-maximal at 3.77 µM (IC50). Moreover, the “CD34+/AnnexinV+” value in test [3] was 43.09%. Besides, the “Higher affinity of NPM1 C-end C+ than WT domain” value on NPM1 C-end C+ (C+ variant vs WT domain) stood at 2 fold.
